In patent US7312188B2, “Peptide derivatives having β-secretase inhibitory activity” (priority 2003, dated 2007) one finds inhibition data, which are given here for 24 compounds.

Structures are written as SMILES. Numbered stars: 1 amine (or outer) side, 2 acyl side, 3 side chain; on linkers, the order of the positions; unused ones are H or OH. Square brackets hold non-standard residues; d marks the D form. Peptide text beside a SMILES is read from it. * marks the point of attachment. ξ: configuration not given here. β3hPhe(2R-OH) = O=C([C@H](O)[C@H](Cc1ccccc1)N[*:1])[*:2]; X2 = O=C([C@H](O)[C@H](CSc1ccccc1)N[*:1])[*:2]; Benzoyl(3-COOH) = O=C(O)c1cccc(C(=O)*)c1; Benzoyl(4-COOH) = O=C(O)c1ccc(C(=O)*)cc1; Tetrazole5carbonyl = O=C(c1nn[nH]n1)*; Oxalyl = O=C(C(=O)[*:2])[*:1]; Tle = CC(C)(C)[C@H](N)C(=O)O; 3Abz = Nc1cccc(C(=O)O)c1; 4Abz = Nc1ccc(C(=O)O)cc1; 2Abz = Nc1ccccc1C(=O)O; Dap = NC[C@H](N)C(=O)O; ξPip = O=C(O)C1CCCCN1; Aib = CC(C)(N)C(=O)O

The assay deals with T1, recombinant human BACE-1 (rhBACE-1) (Homo sapiens, UniProt P56817).
T1 construct: expressed as only an extracellular region (amino acid 1-460 residues) of recombinant human β-secretase; His tag (C); purchased R&D systems (Minneapolis, Minn.); host or cells: murine myeloma cell line NS0
T1 sequence (P56817 22-460 limits assumed): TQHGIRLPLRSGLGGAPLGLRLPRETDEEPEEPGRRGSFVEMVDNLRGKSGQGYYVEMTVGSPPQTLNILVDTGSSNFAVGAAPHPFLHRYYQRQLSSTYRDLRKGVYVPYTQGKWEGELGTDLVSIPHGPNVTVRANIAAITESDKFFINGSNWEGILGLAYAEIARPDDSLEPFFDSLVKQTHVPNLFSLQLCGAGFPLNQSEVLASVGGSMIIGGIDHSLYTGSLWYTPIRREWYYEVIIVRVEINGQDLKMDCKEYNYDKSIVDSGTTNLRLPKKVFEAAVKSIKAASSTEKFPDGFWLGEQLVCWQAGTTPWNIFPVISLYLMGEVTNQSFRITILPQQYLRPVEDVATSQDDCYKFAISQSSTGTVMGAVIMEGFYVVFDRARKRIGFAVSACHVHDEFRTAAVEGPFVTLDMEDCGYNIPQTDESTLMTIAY
Kind of assay: BACE1 inhibitory activity, reverse phase HPLC quantitation of N-terminal fragment of fluorogenic substrate. The format is biochemical. To be noted: 1 μL of inhibitor solution in DMSO (100 μM) in 50 μL reaction; MES buffer pH 5.0; 37° C., 60 minutes. The text has this: Experiment Regarding Measurement of BACE1 Inhibitory Activity
Enzyme Used in Measurement
As an enzyme having β-secretase activity, recombinant human BACE-1 (rhBACE-1) purchased from R&D systems (Minneapolis, Minn.) was used. rhBACE-1 is expressed as only an extracellular region (amino acid 1-460 residues) of recombinant human β-secretase, with a His tag at its carboxyl terminal in murine myeloma cell line, NS0. Purified secreted rhBACE1 is a mixture of a pro entity (about 75 kDa) and a mature entity (about 72 kDa).
Assessment of Enzyme Inhibitory Activity
Enzyme inhibitory activity of an inhibitor was assessed by quantitating an N-terminal fragment produced aftercleaving the substrate with BACE1 by reverse HPLC using (7-methoxycoumarin-4-yl)acetyl-[…]2,4-dinitrophenyl)-Arg-Arg-NH2 purchased from Peptide Institute (Osaka, Japan) as a substrate for BACE1. To 40 μL of 62.5 mM 2-(N-morpholino)ethansulfonic acid (MES)-CH3COOH—NaOH buffer (pH 5.0), were added 1 μL of a solution of an inhibitor diluted with DMSO (100 μM), 4 μL of rhBACE-1 (6.25 ng/μL), and 5 μL of an aqueous solution (50% DMSO) of 250 μM substrate (7-methoxycoumarin-4-yl)acetyl-[…]2,4-dinitrophenyl)-Arg-Arg-NH2 to initiate an enzyme reaction. After incubation at 37° C. for 60 minutes, 20 μL of 20% trichloroacetic acid was added to stop the reaction. And, inhibition % was calculated by measuring a fluorescent intensity of the N-terminal fragment (Ex, 328 nm; Em, 393 nm) using reverse phase HPLC (linear gradient of MeCN in aqueous TFA; flow rate, 1.0 mL/min).
BACE1 Inhibitory Activity
Enzyme inhibitory activity of an inhibitor was assessed by quantitating a N-terminal fragment produced after cleavage of a substrate with BACE1 by reverse phase HPLC using (7-methoxycoumarin-4-yl)acetyl-[…]2,4-dinitrophenyl)-Arg-Arg-NH2 purchased from Peptide Institute (Osaka, Japan) as a substrate for BACE1. Recombinant human BACE-1 purchased from R&D systems (Minneapolis, Minn.) was used. To 40 μL of 62.5 mM 2-(N-morpholino)ethansulfonic acid (MES)-CH3COOH—NaOH buffer (pH 5.0), were added 1 μL of a solution of an inhibitor diluted with DMSO (100 μM), 4 μL of BACE1 (6.25 ng/μL), and 5 μL of an aqueous solution (50% DMSO) of 250 μM substrate (7-methoxycoumarin-4-yl)acetyl-[…]2,4-dinitrophenyl)-Arg-Arg-NH2 to initiate an enzyme reaction. After incubation at 37° C. for 60 minutes, 20 μL of 20% trichloroacetic acid was added to stop a reaction. Inhibition % was calculated by measuring a fluorescent intensity of the N-terminal fragment (Ex, 328 nm; Em, 393 nm) using reverse phase HPLC (linear gradient of MeCN in aqueous TFA; flow rate, 1.0 mL/min).
Regarding `CC(C)C[C@H](NC(=O)[C@@H](NC(=O)[C@@H](N)CCC(=O)O)C(C)C)C(=O)N[C@@H](Cc1ccccc1)[C@@H](O)C(=O)N[C@@H](CC(=O)O)C(=O)N[C@@H](C)C(=O)N1CCCCC1C(=O)O` (single isomer, unassigned) [Example 94], the inhibition at 2 µM stood at 61.8%.

Regarding `CC(C)C[C@H](NC(=O)[C@@H](NC(=O)[C@@H](N)CNC(=O)C(=O)O)C(C)C)C(=O)N[C@@H](Cc1ccccc1)[C@@H](O)C(=O)Nc1ccc(C(=O)O)cc1` [Example 68], the inhibition at 100 µM (stock) stood at 98.8%.

Turning to `CC(C)C[C@H](NC(=O)[C@@H](NC(=O)[C@@H](N)CNC(=O)C(=O)O)C(C)C)C(=O)N[C@@H](Cc1ccccc1)[C@@H](O)C(=O)Nc1cccc(C(=O)O)c1` [Example 69], the inhibition at 2 µM is 98.4%.

As for `CC(C)C[C@H](NC(=O)[C@@H](NC(=O)[C@@H](N)CNC(=O)C(=O)O)C(C)C)C(=O)N[C@@H](Cc1ccccc1)[C@@H](O)C(=O)N[C@@H](CC(=O)O)C(=O)Nc1cccc(C(=O)O)c1` [Example 70] (H-[Dap](Oxalyl)VL[β3hPhe(2R-OH)]D[3Abz]-OH), the inhibition at 2 µM is 98.3%.

Take `CC(C)C[C@H](NC(=O)[C@@H](NC(=O)[C@@H](N)CNC(=O)C(=O)O)C(C)C)C(=O)N[C@@H](Cc1ccccc1)[C@@H](O)C(=O)N[C@@H](CC(=O)O)C(=O)Nc1ccc(C(=O)O)cc1` [Example 71] (H-[Dap](Oxalyl)VL[β3hPhe(2R-OH)]D[4Abz]-OH): the inhibition at 2 µM was determined as 97.9%.

As to `CCOC(=O)c1cccc(NC(=O)c2cccc(NC(=O)[C@H](O)[C@H](Cc3ccccc3)NC(=O)[C@H](CC(C)C)NC(=O)[C@@H](NC(=O)[C@@H](N)CCC(=O)O)C(C)C)c2)c1` [Example 72], the inhibition at 2 µM is 95%.

As for `CC(C)C[C@H](NC(=O)[C@@H](NC(=O)[C@@H](N)CNC(=O)c1nnn[nH]1)C(C)C)C(=O)N[C@@H](Cc1ccccc1)[C@@H](O)C(=O)N[C@@H](CC(=O)O)C(=O)N[C@@H](C)C(=O)N[C@@H](CCC(=O)O)C(=O)O` [Example 73] (H-[Dap](Tetrazole5carbonyl)VL[β3hPhe(2R-OH)]DAE-OH), the inhibition at 2 µM is 93%.

Consider `CC(C)C[C@H](NC(=O)[C@@H](NC(=O)[C@H](CN)NC(=O)C(=O)O)C(C)C)C(=O)N[C@@H](Cc1ccccc1)[C@@H](O)C(=O)Nc1ccc(C(=O)O)cc1` [Example 74], for which the inhibition at 100 µM (stock) amounted to 90.5%.

As to `CC(C)C[C@H](NC(=O)[C@@H](NC(=O)[C@@H](N)CCC(=O)O)C(C)C)C(=O)N[C@@H](Cc1ccccc1)[C@@H](O)C(=O)N[C@@H](CC(=O)O)C(=O)Nc1ccc(C(=O)O)cc1` [Example 76] (H-EVL[β3hPhe(2R-OH)]D[4Abz]-OH), the inhibition at 2 µM was determined as 89.5%.

With `CC(C)C[C@H](NC(=O)[C@@H](NC(=O)[C@H](CN)NC(=O)C(=O)O)C(C)C)C(=O)N[C@@H](Cc1ccccc1)[C@@H](O)C(=O)Nc1cccc(C(=O)O)c1` [Example 77], the inhibition at 2 µM came to 87.9%.

As to `CC(C)C[C@H](NC(=O)[C@@H](NC(=O)[C@@H](N)CCC(=O)O)C(C)C)C(=O)N[C@@H](Cc1ccccc1)[C@@H](O)C(=O)N[C@@H](CC(=O)O)C(=O)Nc1ccccc1C(=O)O` [Example 78] (H-EVL[β3hPhe(2R-OH)]D[2Abz]-OH), the inhibition at 100 µM (stock) was found to be 85.8%.

Turning to `CC(C)C[C@H](NC(=O)[C@@H](NC(=O)[C@@H](N)CCC(=O)O)C(C)C)C(=O)N[C@@H](Cc1ccccc1)[C@@H](O)C(=O)N[C@@H](CC(=O)O)C(=O)Nc1cccc(C(=O)O)c1` [Example 79] (H-EVL[β3hPhe(2R-OH)]D[3Abz]-OH), the inhibition at 2 µM stood at 85.3%.

As for `CC(C)C[C@H](NC(=O)[C@@H](NC(=O)[C@@H](N)CCC(=O)O)C(C)C)C(=O)N[C@@H](Cc1ccccc1)[C@@H](O)C(=O)N[C@@H](CC(=O)O)C(=O)N[C@@H](Cc1ccccc1)C(=O)N[C@@H](CCC(=O)O)C(=O)N[C@@H](Cc1ccccc1)C(=O)O` [Example 80] (H-EVL[β3hPhe(2R-OH)]DFEF-OH), the inhibition at 2 µM was found to be 83.2%.

As to `CC(C)C[C@H](NC(=O)[C@@H](NC(=O)[C@@H](N)CNC(=O)c1ccc(C(=O)O)cc1)C(C)C)C(=O)N[C@@H](Cc1ccccc1)[C@@H](O)C(=O)N[C@@H](CC(=O)O)C(=O)N[C@@H](C)C(=O)N[C@@H](CCC(=O)O)C(=O)O` [Example 81] (H-[Dap](Benzoyl(4-COOH))VL[β3hPhe(2R-OH)]DAE-OH), the inhibition at 2 µM worked out at 82.9%.

`CC(C)C[C@H](NC(=O)[C@@H](NC(=O)[C@@H](N)CCC(=O)O)C(C)C)C(=O)N[C@@H](CSc1ccccc1)[C@@H](O)C(=O)N[C@@H](CC(=O)O)C(=O)N[C@@H](C)C(=O)N[C@@H](CCC(=O)O)C(=O)N[C@@H](Cc1ccccc1)C(=O)O` [Example 82] (H-EVL[X2]DAEF-OH): the inhibition at 2 µM turned out to be 81.8%.

On to `CC(C)C[C@H](NC(=O)[C@@H](NC(=O)[C@@H](N)CCC(=O)O)C(C)C)C(=O)N[C@@H](Cc1ccccc1)[C@@H](O)C(=O)Nc1ccc(Cl)c(C(=O)O)c1` [Example 83], for which the inhibition at 2 µM was 80.1%.

With `CC(C)C[C@H](NC(=O)[C@@H](NC(=O)[C@@H](N)CNC(=O)c1cccc(C(=O)O)c1)C(C)C)C(=O)N[C@@H](Cc1ccccc1)[C@@H](O)C(=O)N[C@@H](CC(=O)O)C(=O)N[C@@H](C)C(=O)N[C@@H](CCC(=O)O)C(=O)O` [Example 84] (H-[Dap](Benzoyl(3-COOH))VL[β3hPhe(2R-OH)]DAE-OH), the inhibition at 2 µM came to 79.1%.

As to `CC(C)C[C@H](NC(=O)[C@@H](NC(=O)[C@H](CN)NC(=O)C(=O)O)C(C)C)C(=O)N[C@@H](Cc1ccccc1)[C@@H](O)C(=O)N[C@@H](CC(=O)O)C(=O)N[C@@H](C)C(=O)N[C@@H](CCC(=O)O)C(=O)O` [Example 85] (Oxalyl-[Dap]VL[β3hPhe(2R-OH)]DAE-OH), the inhibition at 2 µM stood at 75.2%.

Consider `CC(C)C[C@H](NC(=O)[C@@H](NC(=O)[C@@H](N)CCC(=O)O)C(C)C)C(=O)N[C@@H](Cc1ccccc1)[C@@H](O)C(=O)N[C@@H](CC(=O)O)C(=O)N[C@H](C(=O)N[C@@H](CCC(=O)O)C(=O)N[C@@H](Cc1ccccc1)C(=O)O)C(C)(C)C` [Example 86] (H-EVL[β3hPhe(2R-OH)]D[Tle]EF-OH), for which the inhibition at 2 µM was 75%.

Regarding `CC(C)C[C@H](NC(=O)[C@@H](NC(=O)[C@@H](N)CCC(=O)O)C(C)C)C(=O)N[C@@H](Cc1ccccc1)[C@@H](O)C(=O)N[C@@H](CC(=O)O)C(=O)N[C@@H](C)C(=O)Nc1ccccc1C(=O)O` [Example 87] (H-EVL[β3hPhe(2R-OH)]DA[2Abz]-OH), the inhibition at 100 µM (stock) amounted to 72.2%.

In the case of `CC(C)C[C@H](NC(=O)[C@@H](NC(=O)[C@@H](N)CCC(=O)O)C(C)C)C(=O)N[C@@H](Cc1ccccc1)[C@@H](O)C(=O)N[C@@H](CC(=O)O)C(=O)N1CCCCC1C(=O)O` (stereo partly drawn) [Example 88] (H-EVL[β3hPhe(2R-OH)]D[ξPip]-OH), the inhibition at 2 µM worked out at 70.4%.

With `CC(C)C[C@H](NC(=O)[C@@H](NC(=O)[C@@H](N)CCC(=O)O)C(C)C)C(=O)N[C@@H](Cc1ccccc1)[C@@H](O)C(=O)Nc1ccc(CC(=O)O)cc1` [Example 89], the inhibition at 2 µM was 69.8%.

With `CC(C)C[C@H](NC(=O)[C@@H](NC(=O)[C@@H](N)CCC(=O)O)C(C)C)C(=O)N[C@@H](CSc1ccccc1)[C@@H](O)C(=O)N[C@@H](CC(=O)O)C(=O)O` [Example 90] (H-EVL[X2]D-OH), the inhibition at 2 µM was determined as 69%.

For the compound `CC(C)C[C@H](NC(=O)[C@@H](NC(=O)[C@@H](N)CCC(=O)O)C(C)C)C(=O)N[C@@H](Cc1ccccc1)[C@@H](O)C(=O)N[C@@H](CC(=O)O)C(=O)NC(C)(C)C(=O)N[C@@H](CCC(=O)O)C(=O)O` [Example 91] (H-EVL[β3hPhe(2R-OH)]D[Aib]E-OH), the inhibition at 2 µM was determined as 68.9%.

What is called inhibition is the relative decrease from the control value, in per cent.
